From article PMC12526004, “Tiliroside Suppresses Uric Acid Production in Hepatocytes and Attenuates Purine-Induced Hyperuricemia in Male ICR Mice” (Molecules, 2025)

Key:
AML12 hepatocytes [1] = assay: Cell viability, WST-8 assay; format: cell-based; conditions: concentrations up to 100 µM, 2 h
Description: The viability of AML12 cells was determined using the WST-8 assay provided in the Cell Counting Kit-8 (Dojindo Laboratories, Kumamoto, Japan). Cells were initially seeded at 5 × 10^3 cells per well in 96-well plates and maintained in DMEM/F-12 medium containing 10% (v/v) FBS for 72 h. To induce serum deprivation, the medium was replaced with serum-free DMEM/F-12, and cells were incubated for an additional 24 h. […] The treatment lasted for 2 h. Subsequently, cells were washed again with BSS and incubated with the WST-8 reagent for 1 h. Absorbance was measured at 490 nm using a microplate reader (MTP-310Lab; CORONA […] Co., Ltd., […], Japan). Cell viability was normalized to the DMSO control (0 μM), which was set at 100%.

[2] = target: xanthine oxidase (bovine milk-derived) (Bos taurus, UniProt P80457); assay: XO inhibition assay in vitro (UV absorbance at 295 nm); format: biochemical; conditions: xanthine substrate, 37 °C, mean of three independent experiments, read-out: IC50, direct XO inhibitory activity
Description: Prior to the assay, the compounds were freshly dissolved in a mixture of 30% dimethyl sulfoxide (DMSO; FUJIFILM Wako) and 70% phosphate buffer (100 mM, pH 7.5) to prepare test solutions at final concentrations ranging from 0 to 100 µM. In each well of a 96-well microplate, 50 µL of the test solution was mixed with 60 µL of buffer and 30 µL of xanthine oxidase (7.8 mU/mL, bovine milk-derived; Sigma-Aldrich). After preincubation at 37 °C for 10 min, the reaction was initiated by adding 60 µL of xanthine substrate (150 µM; FUJIFILM Wako). Absorbance at 295 nm was monitored for 30 min at 37 °C using a Spark 10 M microplate reader (Tecan Group Ltd., Männedorf, Switzerland). XO inhibitory activity was expressed as percentage inhibition, calculated using the formula Inhibition (%) = 100 × [1 − (B/A)], where A and B represent the absorbance increase in the absence and presence of the test compound, respectively. All measurements were performed in triplicate.
All experimental data are presented as mean ± SEM. […] Data from the in vitro XO inhibition assay are shown as mean values from three independent experiments. IC50 values were calculated by nonlinear regression analysis using dose–response curves generated from at least six concentrations of each compound. All statistical analyses were performed using GraphPad Prism version 10 (GraphPad Software, San Diego, CA, USA).

XO = conditions: read-out: IC50, XO inhibition (previous report); cited from earlier work
AML12 hepatocytes [3] = assay: UA production by AML12 cells stimulated with UA precursors; format: cell-based; conditions: for maximum reduction of UA production: guanosine + inosine (GI mixture) 100 µM each, vs control (0 µM); for UA production: UA precursor xanthine
Description: AML12 hepatocytes used in this study were acquired from ATCC (CRL-2254), Manassas, VA, USA. AML12 cells were maintained in DMEM/F-12 (Life Technologies, Grand Island, NY, USA) supplemented with 10% (v/v) fetal bovine serum (FBS; Hyclone, Logan, UT, USA), recombinant human insulin (5 µg/mL), human transferrin (5 µg/mL), and dexamethasone (40 ng/mL), each obtained from FUJIFILM Wako, as well as selenium (3 ng/mL, Sigma-Aldrich) and penicillin–streptomycin mixed solution (100 U/mL penicillin and 100 µg/mL streptomycin, Nacalai Tesque), under a humidified atmosphere of 5% CO2 at 37 °C. Culture of AML12 hepatocytes and measurement of UA production were conducted following a previously reported protocol.Cells were seeded at a density of 1.0 × 10^5 cells per well in 24-well plates and cultured for 72 h in complete medium, followed by 24 h in serum-free DMEM/F-12. After serum deprivation, cells were rinsed once with calcium- and magnesium-free phosphate-buffered saline [PBS (–)] and incubated in 200 µL of balanced salt solution (BSS) containing […], 5 mM KCl, 1 mM MgCl2, 0.8 mM CaCl2, 25 mM NaHCO3, 1 mM NaH2PO4, 10 mM HEPES, and 5 mM glucose. […] The final concentration of DMSO in all samples was adjusted to 0.15%. After a 2-h incubation, 200 µL of the reaction mixture was collected for UA quantification. The UA concentration in BSS was used as an indicator of UA production. Subsequently, cells were washed with PBS (–) and lysed in 300 µL of buffer containing 50 mM Tris and 1 mM sodium phosphate (pH 7.5). Lysates were sonicated and centrifuged (12,000× g, 5 min, 4 °C), and the supernatants were used for protein quantification using the Pierce™ BCA Protein Assay Kit (Thermo Fisher Scientific Inc., Waltham, MA, USA). UA levels were measured using the uricase-based Uric Acid C-Test Wako (FUJIFILM Wako). UA production was expressed as nanomoles per 2 h per milligram of cellular protein (nmol/2 h/mg protein).

Sequence of xanthine oxidase (bovine milk-derived) (P80457 whole entry): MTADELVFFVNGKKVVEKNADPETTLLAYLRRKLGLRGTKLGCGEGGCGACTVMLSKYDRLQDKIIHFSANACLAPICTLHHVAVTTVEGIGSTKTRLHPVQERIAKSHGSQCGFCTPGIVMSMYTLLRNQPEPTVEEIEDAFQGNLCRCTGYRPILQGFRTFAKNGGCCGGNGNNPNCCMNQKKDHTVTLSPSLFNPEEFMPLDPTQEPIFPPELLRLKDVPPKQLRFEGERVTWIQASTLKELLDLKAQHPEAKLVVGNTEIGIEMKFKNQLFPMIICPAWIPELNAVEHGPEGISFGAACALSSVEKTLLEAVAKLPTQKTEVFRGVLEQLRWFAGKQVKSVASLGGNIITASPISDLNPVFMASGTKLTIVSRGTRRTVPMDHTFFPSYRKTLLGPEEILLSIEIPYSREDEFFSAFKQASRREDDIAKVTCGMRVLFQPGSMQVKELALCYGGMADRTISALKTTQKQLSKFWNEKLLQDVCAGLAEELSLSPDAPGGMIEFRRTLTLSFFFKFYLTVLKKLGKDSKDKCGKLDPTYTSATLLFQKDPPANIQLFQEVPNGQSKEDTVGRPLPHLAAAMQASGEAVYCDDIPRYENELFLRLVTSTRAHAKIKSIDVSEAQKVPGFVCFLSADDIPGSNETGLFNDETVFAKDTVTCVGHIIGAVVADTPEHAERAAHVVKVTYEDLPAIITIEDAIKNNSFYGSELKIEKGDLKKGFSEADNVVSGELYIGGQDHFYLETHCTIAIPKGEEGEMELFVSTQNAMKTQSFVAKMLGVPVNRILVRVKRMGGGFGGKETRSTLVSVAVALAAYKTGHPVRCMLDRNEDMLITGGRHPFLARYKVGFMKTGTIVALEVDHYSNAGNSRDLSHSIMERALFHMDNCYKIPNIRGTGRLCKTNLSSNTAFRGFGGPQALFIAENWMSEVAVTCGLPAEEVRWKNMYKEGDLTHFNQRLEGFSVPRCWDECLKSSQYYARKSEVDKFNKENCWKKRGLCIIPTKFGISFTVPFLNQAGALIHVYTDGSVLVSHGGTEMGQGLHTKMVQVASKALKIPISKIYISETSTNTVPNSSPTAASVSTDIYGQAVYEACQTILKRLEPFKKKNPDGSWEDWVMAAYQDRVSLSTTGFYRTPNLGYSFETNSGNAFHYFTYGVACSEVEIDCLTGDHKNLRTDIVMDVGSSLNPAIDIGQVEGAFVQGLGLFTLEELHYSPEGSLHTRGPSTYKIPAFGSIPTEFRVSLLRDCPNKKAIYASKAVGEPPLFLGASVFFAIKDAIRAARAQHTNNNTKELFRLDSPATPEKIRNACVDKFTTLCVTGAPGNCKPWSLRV

IC50 [2] [µM] | SMILES | cytotoxic effects (cell viability) (AML12 hepatocytes [1]) | IC50 (XO) [µM] | maximum reduction of UA production (AML12 hepatocytes [3]; 100 µM, 2 h) | UA production (AML12 hepatocytes [3]; 10 µM) [nmol/2 h/mg protein] | UA production (AML12 hepatocytes [3]; 30 µM) [nmol/2 h/mg protein] | UA production (AML12 hepatocytes [3]; 100 µM) [nmol/2 h/mg protein] | effect on UA production (AML12 hepatocytes [3]; concentrations up to 100 µM, GI mixture, 2 h)
43 | O=c1c(O[C@@H]2O[C@H](CO)[C@@H](O)[C@H](O)[C@H]2O)c(-c2ccc(O)cc2)oc2cc(O)cc(O)c12 [Astragalin, kaempferol-3-O-glucoside] | did not exhibit any cytotoxic effects | 49.5 | approximately 13.3% | – | – | – | –
– | O=c1c(O)c(-c2ccc(O)cc2)oc2cc(O)cc(O)c12 [Kaempferol, kaempferol] | did not exhibit any cytotoxic effects | – | ~97.2% | 236.0 ± 7.2 | 101.1 ± 2.8 | 31.4 ± 0.5 | –
> 100 | O=C(O)/C=C/c1ccc(O)cc1 [p-Coumaric acid, p-coumaric acid] | did not exhibit any cytotoxic effects | – | – | – | – | – | remained unaffected
